Measured values published in publication PMC5025651, “Reprofiled anthelmintics abate hypervirulent stationary-phase Clostridium difficile” (Scientific Reports, 2016).
≈ marks a conversion by molar mass, not a printed value. Counter-ions that a name gives are not always drawn. Like-named read-outs stand apart in the source and are kept apart here.

Key:
16 C. difficile isolates = assay: MIC by broth microdilution, summary over 16 C. difficile isolates; format: cell-based, Clostridium difficile; conditions: n = 2; for MIC50 / MIC90: Clostridioides difficile; for MIC50: MIC at which 50% of the 16 isolates are inhibited, read-out: MIC50; for MIC90: MIC at which 90% of the 16 isolates are inhibited, read-out: MIC90; for MIC Range: range over 16 C. difficile isolates
[1] = test system: C. difficile strain 4118 (CD4118, ATCC BAA-1870, ribotype 027); assay: MIC by broth microdilution; format: cell-based, Clostridium difficile; conditions: BHIS broth, anaerobic, 20–24 h, n = 2; for MIC: Clostridioides difficile, ATCCBAA1870, read-out: MIC C. difficile 4118
[2] = test system: C. difficile isolate 20110869 (ribotype 001_072); assay: MIC by broth microdilution; format: cell-based, Clostridium difficile; conditions: Clostridioides difficile; isolate 20110869, ribotype 001_072; duplicate; read-out: MIC
[3] = test system: C. difficile isolate 20110742 (ribotype 002); assay: MIC by broth microdilution; format: cell-based, Clostridium difficile; conditions: Clostridioides difficile; isolate 20110742, ribotype 002; duplicate; read-out: MIC
[4] = test system: C. difficile isolate 20100584 (ribotype 014); assay: MIC by broth microdilution; format: cell-based, Clostridium difficile; conditions: Clostridioides difficile; isolate 20100584, ribotype 014; duplicate; read-out: MIC
[5] = test system: C. difficile isolate 20110960 (ribotype 017); assay: MIC by broth microdilution; format: cell-based, Clostridium difficile; conditions: Clostridioides difficile; isolate 20110960, ribotype 017; duplicate; read-out: MIC
[6] = test system: C. difficile isolate 20110740 (ribotype 018); assay: MIC by broth microdilution; format: cell-based, Clostridium difficile; conditions: Clostridioides difficile; isolate 20110740, ribotype 018; duplicate; read-out: MIC
[7] = test system: C. difficile isolate 20120016 (ribotype 019); assay: MIC by broth microdilution; format: cell-based, Clostridium difficile; conditions: Clostridioides difficile; isolate 20120016, ribotype 019; duplicate; read-out: MIC
[8] = test system: C. difficile isolate 20110566 (ribotype 020); assay: MIC by broth microdilution; format: cell-based, Clostridium difficile; conditions: Clostridioides difficile; isolate 20110566, ribotype 020; duplicate; read-out: MIC
[9] = test system: C. difficile isolate 20111163 (ribotype 024); assay: MIC by broth microdilution; format: cell-based, Clostridium difficile; conditions: Clostridioides difficile; isolate 20111163, ribotype 024; duplicate; read-out: MIC
[10] = test system: C. difficile isolate 20121412 (ribotype 047); assay: MIC by broth microdilution; format: cell-based, Clostridium difficile; conditions: Clostridioides difficile; isolate 20121412, ribotype 047; duplicate; read-out: MIC
[11] = test system: C. difficile isolate 20100422 (ribotype 054); assay: MIC by broth microdilution; format: cell-based, Clostridium difficile; conditions: Clostridioides difficile; isolate 20100422, ribotype 054; duplicate; read-out: MIC
[12] = test system: C. difficile isolate 20110986 (ribotype 078); assay: MIC by broth microdilution; format: cell-based, Clostridium difficile; conditions: Clostridioides difficile; isolate 20110986, ribotype 078; duplicate; read-out: MIC
[13] = test system: C. difficile isolate 20110973 (ribotype 106); assay: MIC by broth microdilution; format: cell-based, Clostridium difficile; conditions: Clostridioides difficile; isolate 20110973, ribotype 106; duplicate; read-out: MIC
[14] = test system: C. difficile isolate 20121190 (ribotype 126); assay: MIC by broth microdilution; format: cell-based, Clostridium difficile; conditions: Clostridioides difficile; isolate 20121190, ribotype 126; duplicate; read-out: MIC
[15] = test system: C. difficile isolate 20110961 (ribotype A12); assay: MIC by broth microdilution; format: cell-based, Clostridium difficile; conditions: Clostridioides difficile; isolate 20110961, ribotype A12; duplicate; read-out: MIC
C. difficile strain 4118 [16] = assay: Minimum bactericidal concentration (MBC), logarithmic- and stationary-phase cells; format: cell-based, Clostridium difficile
Procedure: The procedure for MBC determination was adapted from that of Alam et al.[44]. Briefly, a single overnight colony of C. difficile strain 4118 (streaked onto blood agar plate) was suspended in BHIS and grown to OD600 ~ 0.4–0.5 (logarithmic phase) or for 24 h (stationary phase). In 96-well microtiter plates, cultures were added to two-fold serial dilutions of test compounds in BHIS and incubated for 20–24 h at 37 °C in an anaerobic chamber. […] MBC measurements were performed in duplicate.

C. difficile strain 4118 [17] = assay: Time-kill kinetics against stationary-phase cultures; format: cell-based, Clostridium difficile
Procedure: At t = 0, 3, 6 and 24 h, sample aliquots were withdrawn from the treated cultures and bacterial viability was scored by plating serial dilutions on BHIS agar plates. The agar plates were incubated in the anaerobic chamber for 20–24 h at 37 °C. Kinetic experiments were performed at least twice.

[18] = test system: B. breve Strain EX336960VC19; assay: MIC by broth microdilution; format: cell-based; conditions: Bifidobacterium breve; B. breve EX336960VC19; LSM broth, anaerobic; duplicate; read-out: MIC
[19] = test system: B. longum subsp. longum Strain 44B; assay: MIC by broth microdilution; format: cell-based; conditions: Bifidobacterium longum; B. longum subsp. longum 44B; LSM broth, anaerobic; duplicate; read-out: MIC
[20] = test system: C. clostridioforme ATCC 25537; assay: MIC by broth microdilution; format: cell-based, Clostridium clostridioforme; conditions: Clostridium, ATCC25537; C. clostridioforme ATCC 25537; BHIS, anaerobic; duplicate; read-out: MIC
C. sporogenes ATCC 15579 = assay: MIC by broth microdilution; format: cell-based; conditions: Clostridium sporogenes, ATCC15579, BHIS, anaerobic, duplicate
[21] = test system: L. reuteri Strain CF48-3A; assay: MIC by broth microdilution; format: cell-based, Lactobacillus reuteri; conditions: Limosilactobacillus reuteri; L. reuteri CF48-3A; CAMHB with 5% laked horse blood, ~48 h; duplicate; read-out: MIC
[22] = test system: B. fragilis Strain CL05T00C42; assay: MIC by broth microdilution; format: cell-based; conditions: Bacteroides fragilis
[23] = test system: B. thetaiotaomicron ATCC 29148; assay: microbe, parasite or virus in culture; format: cell-based; conditions: Bacteroides thetaiotaomicron, ATCC29148
P. nigrescens ATCC 33563 = assay: MIC by broth microdilution; format: cell-based; conditions: Prevotella nigrescens, ATCC33563
B. subtilis ATCC 6051 = assay: MIC by broth microdilution; format: cell-based; conditions: Bacillus subtilis, ATCC6051; B. subtilis ATCC 6051; CAMHB, aerobic; duplicate; read-out: MIC
S. aureus RN4220 = assay: MIC by broth microdilution; format: cell-based; conditions: Staphylococcus aureus, CAMHB, aerobic, duplicate
S. epidermidis 1457 = assay: MIC by broth microdilution; format: cell-based; conditions: Staphylococcus epidermidis; S. epidermidis 1457; CAMHB, aerobic; duplicate; read-out: MIC
A. baumannii M2 = assay: MIC by broth microdilution; format: cell-based; conditions: Acinetobacter baumannii; A. baumannii M2; CAMHB, aerobic; duplicate; read-out: MIC
P. aeruginosa PAO1 = assay: MIC by broth microdilution; format: cell-based; conditions: Pseudomonas aeruginosa; P. aeruginosa PAO1; CAMHB, aerobic; duplicate; read-out: MIC
Hemolysis assay = format: cell-based; conditions: sheep, pH 7.4
Procedure: Sheep red blood cells (Innovative Research, Novi, MI, USA) were washed three times with PBS pH 7.4. A 3% cell suspension in PBS (100 μL) was added to test compounds in PBS (100 μL, to a final concentration of 32 μg/mL), and then incubated at 37 °C for 1 h. The plate was centrifuged at 500 × g for 10 min, and supernatants (100 μL) were transferred to a clean 96-well plate. Hemolysis was determined by measuring absorbance at 540 nm, with 1% Triton X-100 as the positive control and 0.5% DMSO in PBS as the negative control. Hemolysis assays were performed in triplicate.

## Cc1cc(C(C#N)c2ccc(Cl)cc2)c(Cl)cc1NC(=O)c1cc(I)cc(I)c1O (stereo not drawn) [Closantel]
16 C. difficile isolates
  MIC50: 0.25 µg/mL (≈ 0.377 µM)
  MIC90: 0.25 µg/mL (≈ 0.377 µM)
  MIC Range: 0.13 to 1 µg/mL
[1]
  MIC: 0.25 µg/mL (≈ 0.377 µM)
[2]
  MIC: 1 µg/mL (≈ 1.51 µM)
[3]
  MIC: 0.13 to 0.25 µg/mL (≈ 0.196 to 0.377 µM)
[4]
  MIC: 0.25 µg/mL (≈ 0.377 µM)
[5]
  MIC: 0.13 µg/mL (≈ 0.196 µM)
[6]
  MIC: 0.25 µg/mL (≈ 0.377 µM)
[7]
  MIC: 0.25 µg/mL (≈ 0.377 µM)
[8]
  MIC: 0.25 µg/mL (≈ 0.377 µM)
[9]
  MIC: 0.13 to 0.25 µg/mL (≈ 0.196 to 0.377 µM)
[10]
  MIC: 0.125 µg/mL (≈ 0.189 µM)
[11]
  MIC: 0.25 µg/mL (≈ 0.377 µM)
[12]
  MIC: 0.25 µg/mL (≈ 0.377 µM)
[13]
  MIC: 0.25 µg/mL (≈ 0.377 µM)
[14]
  MIC: 0.25 µg/mL (≈ 0.377 µM)
[15]
  MIC: 0.25 µg/mL (≈ 0.377 µM)
C. difficile strain 4118 [16]; Clostridioides difficile, 4118, minimum bactericidal concentration (≥3-log reduction) for logarithmic-phase cells, 20–24 h, n = 2, read-out: MBClog
  MBC: 2 µg/mL (≈ 3.02 µM)
C. difficile strain 4118 [16]; Clostridioides difficile, 4118, minimum bactericidal concentration (≥3-log reduction) for stationary-phase cells, 20–24 h, n = 2, read-out: MBCstat
  MBC: 4 µg/mL (≈ 6.03 µM)
C. difficile strain 4118 [17]; 4 × MIC, 24 h, stationary-phase CD4118
  log decrease in the number of CFUs: 2.2 log
C. difficile strain 4118 [17]; 16× MIC (rafoxanide 2 μg/mL, closantel 4 μg/mL, compound 8 1 μg/mL), stationary-phase CD4118
  time to eradicate >99.9% of viable cells: 24 h
[18]
  MIC: > 32 µg/mL
[19]
  MIC: 16 µg/mL (≈ 24.1 µM)
[20]
  MIC: 4 µg/mL (≈ 6.03 µM)
C. sporogenes ATCC 15579
  MIC: 1 µg/mL (≈ 1.51 µM)
[21]
  MIC: 32 µg/mL (≈ 48.3 µM)
[22]; B. fragilis CL05T00C42, supplemented Brucella broth, anaerobic, duplicate, read-out: MIC
  MIC: > 32 µg/mL
[23]
  MIC: > 32 µg/mL
P. nigrescens ATCC 33563; P. nigrescens ATCC 33563, supplemented Brucella broth, anaerobic, duplicate, read-out: MIC
  MIC: 8 µg/mL (≈ 12.1 µM)
B. subtilis ATCC 6051
  MIC: ≤ 0.03 µg/mL
S. aureus RN4220
  MIC: 0.25 µg/mL (≈ 0.377 µM)
S. epidermidis 1457
  MIC: ≤ 0.03 µg/mL
A. baumannii M2
  MIC: > 32 µg/mL
P. aeruginosa PAO1
  MIC: > 32 µg/mL
Hemolysis assay
  hemolysis at 1 h, 32 µg/mL: < 1%

## CN[C@H](CC(C)C)C(=O)N[C@H]1C(=O)N[C@@H](CC(N)=O)C(=O)N[C@H]2C(=O)N[C@H]3C(=O)N[C@H](C(=O)N[C@H](C(=O)O)c4cc(O)cc(O)c4-c4cc3ccc4O)[C@H](O)c3ccc(c(Cl)c3)Oc3cc2cc(c3O[C@@H]2O[C@H](CO)[C@@H](O)[C@H](O)[C@H]2O[C@H]2C[C@](C)(N)[C@H](O)[C@H](C)O2)Oc2ccc(cc2Cl)[C@H]1O [Vancomycin, vancomycin hydrochloride hydrate]
16 C. difficile isolates
  MIC50: 1 µg/mL
  MIC90: 2 µg/mL
  MIC Range: 0.5 to 2 µg/mL
[1]
  MIC C. difficile 4118: 2 µg/mL
  MIC: 2 µg/mL
[2]
  MIC: 1 µg/mL
[3]
  MIC: 0.5 to 1 µg/mL
[4]
  MIC: 0.5 µg/mL
[5]
  MIC: 0.5 µg/mL
[6]
  MIC: 1 µg/mL
[7]
  MIC: 0.5 µg/mL
[8]
  MIC: 0.5 µg/mL
[9]
  MIC: 1 µg/mL
[10]
  MIC: 1 µg/mL
[11]
  MIC: 1 µg/mL
[12]
  MIC: 0.5 to 1 µg/mL
[13]
  MIC: 2 µg/mL
[14]
  MIC: 0.5 µg/mL
[15]
  MIC: 1 µg/mL
C. difficile strain 4118 [16]; Clostridioides difficile, 4118, read-out: MBClog
  MBC: 8 µg/mL
C. difficile strain 4118 [16]; Clostridioides difficile, 4118, read-out: MBCstat
  MBC: > 32 µg/mL
C. difficile strain 4118 [16]; at 32 μg/mL, 20–24 h
  log reduction of CD4118 stationary-phase cells: < 3 log
C. difficile strain 4118 [17]; 16× MIC (metronidazole 4 μg/mL, vancomycin 32 μg/mL), up to 24 h
  log killing of CD4118 stationary-phase cells: < 3 log
[18]
  MIC: 0.5 µg/mL
[19]
  MIC: 0.25 µg/mL
[20]
  MIC: 0.5 µg/mL
C. sporogenes ATCC 15579
  MIC: 2 µg/mL
[21]
  MIC: > 32 µg/mL
[22]
  MIC: 32 µg/mL
[23]
  MIC: > 32 µg/mL
P. nigrescens ATCC 33563
  MIC: > 32 µg/mL
B. subtilis ATCC 6051
  MIC: 0.13 µg/mL
S. aureus RN4220
  MIC: 1 µg/mL
S. epidermidis 1457
  MIC: 2 µg/mL
A. baumannii M2
  MIC: > 32 µg/mL
P. aeruginosa PAO1
  MIC: > 32 µg/mL
